Read-outs that look alike come from different tables or passages of the source. Each block holds one molecule with its values, some of them ahead of it.
Experiments:
[1] = target: T1, human TRPV3 (Homo sapiens, UniProt Q8NET8); assay: In vitro antagonism of recombinant human TRPV3 activation (FLIPR Tetra calcium assay); format: cell-based; settings: HEK293 cells stably expressing human TRPV3, agonist 2-APB at 80 μM
T1 construct: expressed in transfected cells
T1 sequence (Q8NET8 1-790): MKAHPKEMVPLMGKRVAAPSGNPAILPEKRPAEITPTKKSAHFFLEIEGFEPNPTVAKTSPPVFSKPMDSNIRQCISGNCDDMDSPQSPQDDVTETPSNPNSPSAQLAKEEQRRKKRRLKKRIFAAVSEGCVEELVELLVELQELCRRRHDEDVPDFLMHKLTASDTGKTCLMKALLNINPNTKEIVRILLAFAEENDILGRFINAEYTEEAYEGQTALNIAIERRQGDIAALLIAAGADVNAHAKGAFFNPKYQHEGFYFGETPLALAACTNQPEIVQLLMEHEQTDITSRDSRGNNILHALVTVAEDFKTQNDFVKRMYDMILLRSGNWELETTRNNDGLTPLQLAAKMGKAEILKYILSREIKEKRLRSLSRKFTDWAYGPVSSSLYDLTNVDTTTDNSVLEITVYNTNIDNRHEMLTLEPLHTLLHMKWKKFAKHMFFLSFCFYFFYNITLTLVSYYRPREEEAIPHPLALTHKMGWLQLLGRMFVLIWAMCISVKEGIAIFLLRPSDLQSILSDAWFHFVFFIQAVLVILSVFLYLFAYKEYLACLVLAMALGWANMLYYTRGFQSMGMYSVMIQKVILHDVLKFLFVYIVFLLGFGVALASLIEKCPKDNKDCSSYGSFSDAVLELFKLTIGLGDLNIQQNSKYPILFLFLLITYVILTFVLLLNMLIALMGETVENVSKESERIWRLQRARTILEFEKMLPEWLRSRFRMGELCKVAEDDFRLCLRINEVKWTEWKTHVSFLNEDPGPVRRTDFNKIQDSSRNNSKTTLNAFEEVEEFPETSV
In short: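 Calcium flux read over a 10 min run: compound added at 10 s to Calcium-4-loaded human TRPV3-HEK293 cells, agonist 2-APB (80 μM, its EC80) after 3 min. IC50 derived from peak-minus-baseline signal as percentage of uninhibited 2-APB response, typically averaged over at least two runs.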

[2] = In vitro human microsomal stability assay; format: in vitro ADME; settings: human, microsomes, 0.5 h, 0.5 μM, pH 7.4
In short: (§1)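 Sprague-Dawley rat or human liver microsomes; 37° C.; NADPH cofactor, also spiked into time-zero samples.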

[3] = In vitro rat microsomal stability assay; format: in vitro ADME, rat (Sprague-Dawley); settings: Sprague-Dawley, rat, microsomes, 0.5 h, 0.5 μM, pH 7.4
In short: as §1

[4] = actual measured value shown parenthetically, in most cases average of at least two runs, read-out: IC50

Compound: Cc1cccnc1[C@@H](O)C1(c2ccc(Cl)c(Cl)c2)CCC1 [Example 30, (S)-[1-(3,4-dichlorophenyl)cyclobutyl] (3-methylpyridin-2-yl)methanol]
- IC50 [1, 4]: 1720 nM
- HUMAN MICROSOMAL STABILITY (% REMAINING AFTER 30 MINUTES) [2]: 1.5%
- RAT MICROSOMAL STABILITY (% REMAINING AFTER 30 MINUTES) [3]: 0.98%

Compound: O[C@@H](c1ncccn1)C1(c2ccc(Cl)c(Cl)c2)CCC1 [Example 40, (R)-[1-(3,4-dichlorophenyl)cyclobutyl](pyrimidin-2-yl)methanol]
- IC50 [1, 4]: 13300 nM
- HUMAN MICROSOMAL STABILITY (% REMAINING AFTER 30 MINUTES) [2]: 68%
- RAT MICROSOMAL STABILITY (% REMAINING AFTER 30 MINUTES) [3]: 5.6%

Compound: O[C@@H](c1ncccn1)C1(c2ccc(C(F)(F)F)cc2)CCC1 [Example 42, (R)-pyrimidin-2-yl{1-[4-(trifluoromethyl)phenyl]cyclobutyl}methanol]
- IC50 [1, 4]: > 10000 nM
- HUMAN MICROSOMAL STABILITY (% REMAINING AFTER 30 MINUTES) [2]: 50%
- RAT MICROSOMAL STABILITY (% REMAINING AFTER 30 MINUTES) [3]: 40%

Compound: OC(c1ccccn1)C1(c2ccc(Cl)c(Cl)c2)CCCCC1 (stereo not shown) [Example 43, [1-(3,4-dichlorophenyl)cyclohexyl](pyridin-2-yl)methanol]
- IC50 [1, 4]: 660 nM
- IC50 ([1]; reported range, read-out: IC50 (range class)): 50 to 500 nM
- HUMAN MICROSOMAL STABILITY (% REMAINING AFTER 30 MINUTES) [2]: 1.8%
- RAT MICROSOMAL STABILITY (% REMAINING AFTER 30 MINUTES) [3]: 0.31%

Compound: CC(c1ccc(F)cc1)C1(C(O)c2ccccn2)CCC1 (stereo not shown) [Example 46, {1-[1-(4-fluorophenyl)ethyl]cyclobutyl}(pyridin-2-yl)methanol]
- IC50 [1, 4]: 13700 nM
- HUMAN MICROSOMAL STABILITY (% REMAINING AFTER 30 MINUTES) [2]: 11%
- RAT MICROSOMAL STABILITY (% REMAINING AFTER 30 MINUTES) [3]: 0.23%

Compound: Cc1ccc(CC2(C(O)c3ccccn3)CCC2)cc1 (stereo not shown) [Example 52, [1-(4-methylbenzyl)cyclobutyl](pyridin-2-yl)methanol]
- IC50 [1, 4]: 5020 nM
- HUMAN MICROSOMAL STABILITY (% REMAINING AFTER 30 MINUTES) [2]: 1.7%
- RAT MICROSOMAL STABILITY (% REMAINING AFTER 30 MINUTES) [3]: 0.05%

Compound: OC(c1ccccn1)C1(C2CCCc3ccccc32)CCC1 (stereo not shown) [Example 56, pyridin-2-yl[1-(1,2,3,4-tetrahydronaphthalen-1-yl)cyclobutyl]methanol]
- IC50 [1, 4]: 1070 nM
- HUMAN MICROSOMAL STABILITY (% REMAINING AFTER 30 MINUTES) [2]: 0.42%
- RAT MICROSOMAL STABILITY (% REMAINING AFTER 30 MINUTES) [3]: 1.1%

The next lines start with the values.

- IC50 [1, 4]: 740 nM
- HUMAN MICROSOMAL STABILITY (% REMAINING AFTER 30 MINUTES) [2]: 51%
- RAT MICROSOMAL STABILITY (% REMAINING AFTER 30 MINUTES) [3]: 11%
Compound: O[C@H](c1ncccn1)C1(c2ccc(Cl)c(Cl)c2)CCC1 [Example 39, (S)-[1-(3,4-dichlorophenyl)cyclobutyl](pyrimidin-2-yl)methanol]

- IC50 [1, 4]: > 10000 nM
- HUMAN MICROSOMAL STABILITY (% REMAINING AFTER 30 MINUTES) [2]: 54%
- RAT MICROSOMAL STABILITY (% REMAINING AFTER 30 MINUTES) [3]: 21%
Compound: O[C@H](c1ncccn1)C1(c2ccc(C(F)(F)F)cc2)CCC1 [Example 41, (S)-pyrimidin-2-yl{1-[4-(trifluoromethyl)phenyl]cyclobutyl}methanol]

- IC50 [1, 4]: 2220 nM
- HUMAN MICROSOMAL STABILITY (% REMAINING AFTER 30 MINUTES) [2]: 0.03%
- RAT MICROSOMAL STABILITY (% REMAINING AFTER 30 MINUTES) [3]: 0.02%
Compound: Cc1ccccc1C(C)C1(C(O)c2ccccn2)CCC1 (stereo not shown) [Example 45, {1-[1-(2-methylphenyl)ethyl]cyclobutyl}(pyridin-2-yl)methanol]

- IC50 [1, 4]: 3270 nM
- HUMAN MICROSOMAL STABILITY (% REMAINING AFTER 30 MINUTES) [2]: 15%
- RAT MICROSOMAL STABILITY (% REMAINING AFTER 30 MINUTES) [3]: 0.13%
Compound: CC(c1ccc(Cl)cc1)C1(C(O)c2ccccn2)CCC1 (stereo not shown) [Example 49, {1-[1-(4-chlorophenyl)ethyl]cyclobutyl}(pyridin-2-yl)methanol]

- IC50 [1, 4]: 2420 nM
- HUMAN MICROSOMAL STABILITY (% REMAINING AFTER 30 MINUTES) [2]: 0.08%
- RAT MICROSOMAL STABILITY (% REMAINING AFTER 30 MINUTES) [3]: 0.18%
Compound: CC(c1ccccc1Cl)C1(C(O)c2ccccn2)CCC1 (stereo not shown) [Example 50, {1-[1-(2-chlorophenyl)ethyl]cyclobutyl}(pyridin-2-yl)methanol]

- IC50 [1, 4]: 7120 nM
- HUMAN MICROSOMAL STABILITY (% REMAINING AFTER 30 MINUTES) [2]: 1.6%
- RAT MICROSOMAL STABILITY (% REMAINING AFTER 30 MINUTES) [3]: 0.29%
Compound: OC(c1ccccn1)C1(C2CCc3ccccc32)CCC1 (stereo not shown) [Example 55, [1-(2,3-dihydro-1H-inden-1-yl)cyclobutyl](pyridin-2-yl)methanol]
